From patent US6319702A, “Nucleic acids encoding mutant human carboxypeptidase A enzymes” (Glaxo Wellcome, Inc., priority 1993, dated 2001)
Where two headings read alike, the source gives them in different places.

Assays:
[1] = Stability and biodistribution of prodrugs in vivo (HPLC of plasma and tissues); design: species or system mice (CD-1 nude; BALB/C where indicated); conditions: for stability in vivo (in words): mice
mutant enzyme = test: Substrate behaviour with mutant enzyme; format: biochemical, human
Source text: This type of compound is not useful for ADEPT.

[2] = target: T1, wild type human carboxypeptidase A1 (Homo sapiens, UniProt P15085); test: Enzyme kinetics of prodrugs with wild type human carboxypeptidase A1 (coupled assay); format: biochemical
T1 sequence (P15085 111-419): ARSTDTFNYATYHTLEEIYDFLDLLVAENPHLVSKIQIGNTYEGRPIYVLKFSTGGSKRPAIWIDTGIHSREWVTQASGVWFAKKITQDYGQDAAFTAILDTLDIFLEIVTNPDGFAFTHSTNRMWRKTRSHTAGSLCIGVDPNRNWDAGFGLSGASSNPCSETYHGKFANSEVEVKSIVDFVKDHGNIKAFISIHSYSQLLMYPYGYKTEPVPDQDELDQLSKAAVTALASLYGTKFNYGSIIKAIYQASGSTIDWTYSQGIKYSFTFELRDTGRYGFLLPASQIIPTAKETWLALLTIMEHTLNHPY
Source text: (§1) As indicated herein, the in vivo stable prodrug of the present invention should be a better substrate for a mutant enzyme than the corresponding wild type enzyme in order for the stable prodrug to be activated selectively at the tumour. […] The most relevant kinetic constant in the table is the kcat/Km, which provides an estimate of the second order rate constant for the enzyme catalyzed conversion of prodrug to methotrexate. Thus, the larger the kcat/Km, the more efficient the enzyme with a particular substrate. […] Thus, the single mutation at 268 from thr to gly converted very poor substrates in the wild type enzyme to excellent substrates in the mutant enzyme. […] Thus, the compounds are much better substrates for the mutant enzyme than the wild type enzyme which permits very specific tumor targeted activation of the nontoxic, stable prodrug to the active agent.
(§2) Kinetics were determined by a modification of the coupled assay of Kuefner, et al (1989) Biochemistry 28 2288-2297 in which the product MTX is converted by excess carboxypeptidase G to the pteroate of MTX. In this assay the reaction is followed spectrophotometrically at 315 nm; at this wavelength the change in molar absorbtivity for the coupled reaction was determined to be 9.57 mM^-1 cm^-1. Assays were performed at 25° C. in 25 mM tris-HCl, 100 mM NaCl, pH 7.4. Prodrugs were preincubated at 25° C. with buffer and 17 milliunits of Sigma #C-9658 carboxypeptidase G in 1 ml total volume. Assay was initiated with carboxypeptidase A or the appropriate mutant. Initial velocities were obtained, and standard Michaelis-Menten calculations were used to determine kinetic constants (in Biochemistry, Lehninger, A. L. 1970, Worth Publishers, Inc, NY).

268gly = test: Enzyme kinetics of prodrugs with 268gly mutant of human CPA1 (coupled assay); format: biochemical
Source text: as §1, §2

in vivo = conditions: mouse, iv
268ala = test: Enzyme kinetics of prodrugs with 268ala mutant of human CPA1 (coupled assay); format: biochemical; conditions: rate too slow to assay
Source text: as §1, §2

[3] = CECUM, 30 min, 50 mg/kg i.p. or i.v., CD-1 nude mice
[4] = CECUM, 120 min, 50 mg/kg i.p. or i.v., CD-1 nude mice
[5] = FECES, 30 min, 50 mg/kg i.p. or i.v., CD-1 nude mice
[6] = FECES, 120 min, 50 mg/kg i.p. or i.v., CD-1 nude mice
[7] = KIDNEY, 30 min, 50 mg/kg i.p. or i.v., CD-1 nude mice
[8] = KIDNEY, 120 min, 50 mg/kg i.p. or i.v., CD-1 nude mice
[9] = LARGE INTESTINE, 120 min, 50 mg/kg i.p. or i.v., CD-1 nude mice
[10] = LIVER, 30 min, 50 mg/kg i.p. or i.v., CD-1 nude mice
[11] = LIVER, 120 min, 50 mg/kg i.p. or i.v., CD-1 nude mice
[12] = SMALL INTESTINE, 30 min, 50 mg/kg i.p. or i.v., CD-1 nude mice
[13] = SMALL INTESTINE, 120 min, 50 mg/kg i.p. or i.v., CD-1 nude mice
[14] = TUMOR, 30 min, 50 mg/kg i.p. or i.v., CD-1 nude mice
[15] = mouse, cecum, 50 mg/kg, CECUM, 30 min, 50 mg/kg i.p. or i.v., CD-1 nude mice, read-out: stability: percentage of material observed as intact prodrug, cecum
[16] = mouse, cecum, 50 mg/kg, CECUM, 120 min, 50 mg/kg i.p. or i.v., CD-1 nude mice, read-out: stability: percentage of material observed as intact prodrug, cecum
[17] = mouse, feces, 50 mg/kg, FECES, 30 min, 50 mg/kg i.p. or i.v., CD-1 nude mice, read-out: stability: percentage of material observed as intact prodrug, feces (converted)
[18] = mouse, feces, 50 mg/kg, FECES, 120 min, 50 mg/kg i.p. or i.v., CD-1 nude mice, read-out: stability: percentage of material observed as intact prodrug, feces
[19] = mouse, kidney, 50 mg/kg, KIDNEY, 30 min, 50 mg/kg i.p. or i.v., CD-1 nude mice, read-out: stability: percentage of material observed as intact prodrug, kidney
[20] = mouse, kidney, 50 mg/kg, KIDNEY, 120 min, 50 mg/kg i.p. or i.v., CD-1 nude mice, read-out: stability: percentage of material observed as intact prodrug, kidney
[21] = mouse, large intestine, 50 mg/kg, LARGE INTESTINE, 120 min, 50 mg/kg i.p. or i.v., CD-1 nude mice, read-out: stability: percentage of material observed as intact prodrug, large intestine
[22] = mouse, liver, 50 mg/kg, LIVER, 30 min, 50 mg/kg i.p. or i.v., CD-1 nude mice, read-out: stability: percentage of material observed as intact prodrug, liver (converted)
[23] = mouse, liver, 50 mg/kg, LIVER, 120 min, 50 mg/kg i.p. or i.v., CD-1 nude mice, read-out: stability: percentage of material observed as intact prodrug, liver
[24] = mouse, plasma, 50 mg/kg, PLASMA, 30 min, 50 mg/kg i.p. or i.v., CD-1 nude mice, read-out: concentration of prodrug in plasma
[25] = mouse, plasma, 50 mg/kg, PLASMA, 30 min, 50 mg/kg i.p. or i.v., CD-1 nude mice, read-out: stability: percentage of material observed as intact prodrug, plasma
[26] = mouse, small intestine, 50 mg/kg, SMALL INTESTINE, 30 min, 50 mg/kg i.p. or i.v., CD-1 nude mice, read-out: stability: percentage of material observed as intact prodrug, small intestine
[27] = mouse, small intestine, 50 mg/kg, SMALL INTESTINE, 120 min, 50 mg/kg i.p. or i.v., CD-1 nude mice, read-out: stability: percentage of material observed as intact prodrug, small intestine
[28] = mouse, tumor, 50 mg/kg, TUMOR, 30 min, 50 mg/kg i.p. or i.v., CD-1 nude mice, read-out: stability: percentage of material observed as intact prodrug, tumor

SMILES: CN(Cc1cnc2nc(N)nc(N)c2n1)c1ccc(C(=O)N[C@@H](CCC(=O)O)C(=O)N[C@@H](Cc2cccc(C(C)(C)C)c2)C(=O)O)cc1 [Prodrug 12, N-(4-(((2,4-diamino-6-pterdinyl)methyl)methylamino)benzoyl)-L-glutam-1-yl-3-tert-butyl-L-phenylalanine]
- concentration of prodrug in cecum [1, 3]: 16.3 nmol/g
- concentration of prodrug in cecum [1, 4]: 402.3 nmol/g
- concentration of prodrug in feces [1, 5]: 1205 nmol/g
- concentration of prodrug in feces [1, 6]: 1941 nmol/g
- concentration of prodrug in kidney [1, 7]: 2.2 nmol/g
- concentration of prodrug in kidney [1, 8]: 0.2 nmol/g
- concentration of prodrug in large intestine [1, 9]: 14.7 nmol/g
- concentration of prodrug in liver [1, 10]: 58.6 nmol/g
- concentration of prodrug in liver [1, 11]: 39.5 nmol/g
- concentration of prodrug in small intestine [1, 12]: 550.8 nmol/g
- concentration of prodrug in small intestine [1, 13]: 44.9 nmol/g
- concentration of prodrug in tumor [1, 14]: 1.6 nmol/g
- stability in vivo (in words) ([1]; 50 mg/kg): stable in vivo
- remaining at 0.5 h [1, 15]: 100%
- remaining at 2 h [1, 16]: 80.7%
- remaining at 0.5 h [1, 17]: 93%
- remaining at 2 h [1, 18]: 82%
- remaining at 0.5 h [1, 19]: 53.4%
- remaining at 2 h [1, 20]: 21.6%
- remaining at 2 h [1, 21]: 66.9%
- remaining at 0.5 h [1, 22]: 91.3%
- remaining at 2 h [1, 23]: 89.2%
- concentration at 0.5 h [1, 24]: 2600 nM
- remaining at 0.5 h [1, 25]: 100%
- concentration at 2 h ([1]; mouse, plasma, 50 mg/kg, PLASMA, 120 min, 50 mg/kg i.p. or i.v., CD-1 nude mice, read-out: concentration of prodrug in plasma): 700 nM
- remaining at 2 h ([1]; mouse, plasma, 50 mg/kg, PLASMA, 120 min, 50 mg/kg i.p. or i.v., CD-1 nude mice, read-out: stability: percentage of material observed as intact prodrug, plasma): 100%
- remaining at 0.5 h [1, 26]: 91%
- remaining at 2 h [1, 27]: 67%
- remaining at 0.5 h [1, 28]: 92.8%
- substrate for a mutant enzyme (in words) (mutant enzyme): good substrates for a mutant enzyme
- human CPA catalyzed reaction (in words) [2]: not measureable
- kcat/Km for human CPA1 compared with that of the L-phenylalanine prodrug (in words) [2]: much lower
- substrate for wild type CPA (in words) [2]: not for the wild type enzyme
- kcat (symbol ND) ([2]; Human CPA1, rate too slow to assay): ND (not determined; rate to slow assay. kcat ≤ 0.0005/sec.)
- activity of 268Gly compared with human CPA1 with the L-phenylalanine prodrug (in words) (268gly): not different
- kcat/Km (268gly; 268Gly): 380000 M⁻¹ s⁻¹
- Km (268gly; 268gly, 25° C., pH 7.4): 2.1 µM
- kcat (268gly; 268gly, 25° C., pH 7.4): 0.81 s⁻¹
- MTD (in vivo): > 40 mg/kg
- NOAEL (in vivo): ≥ 40 mg/kg
- kcat (symbol ND) (268ala): ND (not determined; rate to slow assay. kcat ≤ 0.0005/sec.)

SMILES: CN(Cc1cnc2nc(N)nc(N)c2n1)c1ccc(C(=O)N[C@@H](CCC(=O)O)C(=O)N[C@@H](Cc2cccc(C3CCC3)c2)C(=O)O)cc1 [Prodrug 11]
- concentration of prodrug in cecum [1, 3]: 4.5 nmol/g
- concentration of prodrug in cecum [1, 4]: 0.8 nmol/g
- concentration of prodrug in feces [1, 5]: 426.8 nmol/g
- concentration of prodrug in feces [1, 6]: 389.8 nmol/g
- concentration of prodrug in kidney [1, 7]: 7.3 nmol/g
- concentration of prodrug in kidney [1, 8]: 3.0 nmol/g
- concentration of prodrug in large intestine ([1]; LARGE INTESTINE, 30 min, 50 mg/kg i.p. or i.v., CD-1 nude mice): 2.7 nmol/g
- concentration of prodrug in large intestine [1, 9]: 4.4 nmol/g
- concentration of prodrug in liver [1, 10]: 53.8 nmol/g
- concentration of prodrug in liver [1, 11]: 47.8 nmol/g
- concentration of prodrug in small intestine [1, 12]: 301.3 nmol/g
- concentration of prodrug in small intestine [1, 13]: 140.0 nmol/g
- concentration of prodrug in spleen ([1]; SPLEEN, 30 min, 50 mg/kg i.p. or i.v., CD-1 nude mice): 2.7 nmol/g
- concentration of prodrug in tumor [1, 14]: 4.8 nmol/g
- concentration of prodrug in tumor ([1]; TUMOR, 120 min, 50 mg/kg i.p. or i.v., CD-1 nude mice): 2.4 nmol/g
- stability in vivo (in words) ([1]; 50 mg/kg): stable in vivo
- remaining at 0.5 h [1, 15]: 100%
- remaining at 2 h [1, 16]: 100%
- remaining at 0.5 h [1, 17]: 92.3%
- remaining at 2 h [1, 18]: 67.9%
- remaining at 0.5 h [1, 19]: 83.5%
- remaining at 2 h [1, 20]: 82.3%
- remaining at 0.5 h ([1]; mouse, large intestine, 50 mg/kg, LARGE INTESTINE, 30 min, 50 mg/kg i.p. or i.v., CD-1 nude mice, read-out: stability: percentage of material observed as intact prodrug, large intestine): 74.5%
- remaining at 2 h [1, 21]: 85%
- remaining at 0.5 h [1, 22]: 81.3%
- remaining at 2 h [1, 23]: 73.3%
- concentration at 0.5 h [1, 24]: 22200 nM
- remaining at 0.5 h [1, 25]: 97.1%
- remaining at 0.5 h [1, 26]: 86.7%
- remaining at 2 h [1, 27]: 67.7%
- remaining at 0.5 h ([1]; mouse, spleen, 50 mg/kg, SPLEEN, 30 min, 50 mg/kg i.p. or i.v., CD-1 nude mice, read-out: stability: percentage of material observed as intact prodrug, spleen): 96.5%
- remaining at 0.5 h [1, 28]: 100%
- remaining at 2 h ([1]; mouse, tumor, 50 mg/kg, TUMOR, 120 min, 50 mg/kg i.p. or i.v., CD-1 nude mice, read-out: stability: percentage of material observed as intact prodrug, tumor): 88.1%
- substrate for a mutant enzyme (in words) (mutant enzyme): good substrates for a mutant enzyme
- substrate for wild type CPA (in words) [2]: not for the wild type enzyme
